Values joined by “and” are separate entries in the source; they are usually repeats but may differ in a detail not shown here. Equal entries are not always repeated. Where two headings read alike, the source gives them in different places.
Experiments:
[1] = MTT cell proliferation assay (cytotoxicity), HepG2; type: cell-based; settings: human, HepG2 cells, 72 h incubation, read-out: LC50, HepG2
Protocol: The results are expressed as LC50 values. […] Cytotoxicity was determined using the MTT assay.

[2] = in vitro; settings: dog
Protocol: (§1) Cytotoxicity of ezetimibe 1 and of newly synthesized amides 5a–f was determined using MTT cell proliferation assay in Madine-Darby Canine Kidney II wild-type (MDCKIIwt), MDCKII cells stably expressing hNPC1L1 (hNPC1L1/MDCKII) and HepG2 cell lines (Table 1). hNPC1L1/MDCKII were used as a pharmacologically validated model for investigating NPC1L1-mediated cholesterol uptake.[21] LC50 values were determined and values higher than 100 μM were considered non-toxic.
(§2) Madin-Darby Canine Kidney II wild type (MDCKIIwt), MDCKII cells stably expressing human NPC1L1 (hNPC1L1/MDCKII), and HepG2 cells were cultured in Dulbecco’s Modified Eagle Medium (DMEM) (Gibco,® Life Technologies, Carlsbad, USA) containing 10% fetal calf serum (FCS) (Sigma–Aldrich, Munich, Germany), 1% penicillin/streptomycin in a humidified 5% CO2 incubator at 37 °C. MDCKIIwt cells were stably transfected with human NPC1L1 using Lipofectamine LTX (Life Technologies, Carlsbad, USA) according to the manufacturer’s protocol. After 48 h, selection with 1000 μg/mL G418 (Sigma–Aldrich, Munich, Germany) was started. Selection lasted for two weeks, after which transfected cells were maintained in the medium containing 500 μg/mL G418.
(§3) MDCKIIwt, hNPC1L1/MDCKII, and HepG2 cells were plated in 96-well microtiter plates at 2 × 10^4 cells/mL on day 0. On the next day, tested compounds were added to obtain five 10-fold consecutive dilutions in range from 10^−8 to 10^−4 mol/L, and incubated for further 72 h. Cytotoxicity of the compounds was determined by the MTT cell proliferation assay (Sigma–Aldrich, Munich, Germany).[22] The results are expressed as LC50 values. The absorbance (A) was measured on a microplate reader at 570 nm. Cytotoxicity of each compound was tested in quadruplicate in three independent experiments. Furthermore, toxicity of the compounds in combination with micelles was tested using the same method. MDCKIIwt and hNPC1L1/MDCKII were plated in 96-well microtiter plates (150 μL medium/well) at 2 × 10^5 cells/mL 24 h before the experiment. Micelles were prepared according to the modified method described by Field et al.[23] In brief, micellar components were mixed with DMEM supplemented with 10% FCS to obtain final concentrations of 0.25 mM oleic acid, 50 μM cholesterol, 10 μM compactin, 50 μM mevalonate, 5 mM Na-taurocholate (Sigma–Aldrich, Munich, Germany) and sonicated. Tested compounds (25, 50, 100, 150, 200 μM) were added to the prepared medium, vortexed and applied to the cells for 1 h. Cytotoxicity was determined using the MTT assay.

[3] = test system: hNPC1L1/MDCKII cells; set-up: method as in PMID 25305716; settings: determined previously, cited from earlier work
[4] = test system: C57BL/6 mice; assay: In vivo acute cholesterol absorption; settings: 20 mg/kg/day for 2 days, oral gavage, reduction in [3H]cholesterol radioactivity relative to vehicle, mean ± SEM
Protocol: Finally, we tested the in vivo inhibition of cholesterol absorption of ezetimibe 1 and 4-F-phenyl representatives (5b,d,f) from each group of ezetimibe analogs. For in vivo testing, we used the compounds with lower IC50 values and higher inhibition of cholesterol uptake as determined in vitro. For that purpose, mice were treated with 20 mg/kg/day of each compound for two days, gavaged with [^3H]cholesterol and radioactivity was measured in the liver and three equal parts of the small intestine (duodenum, jejunum, ileum). The results are expressed as percent reduction in radioactivity relative to vehicle (Table 2). […] In the three parts of the small intestine (duodenum, jejunum, ileum), ezetimibe 1 lowered [^3H]cholesterol by 60%, 52%, and 44%, respectively.
26 weeks old male C57BL/6 mice (3–4 per group) were maintained in a temperature-controlled environment under a 12 h light/12 h dark cycle with free access to chow diet (Altromin Spezialfutter GmbH, Lage, Germany) and water. For two days, mice were treated with ezetimibe, tested compounds (20 mg/kg/day) or vehicle. For the treatment, compounds were dissolved in corn oil and administered to mice (100 μL) after 4 h fasting by oral gavage. On day 2, 90 min after compound administration, mice were gavaged with corn oil (200 μL) containing [^3H]cholesterol (2 μCi) ([1,2-3H(N)] cholesterol, 1 mCi/mL, ARC Inc., St. Louis, USA). Liver and small intestines were collected 4 h post-gavage and cholesterol uptake and absorption were determined as previously described.[24] Animal experiments were performed according to the standards set by the Austrian Federal Ministry of Science, Research, and Economy, Vienna, Austria.

[5] = MTT cell proliferation assay (cytotoxicity), MDCKIIwt; type: cell-based; settings: dog, MDCKII wild-type cells, 72 h incubation, read-out: LC50, MDCKII
Protocol: as §1, §2, §3

[6] = test system: hNPC1L1/MDCKII cells; assay: In vitro [3H]cholesterol uptake; type: cell-based, Canine; settings: for IC50: Canis lupus familiaris, MDCK-II, read-out: IC50, inhibition of cholesterol uptake; for maximum inhibition of cholesterol uptake: compared to untreated cells
Protocol: Ezetimibe analogs 5a–f were tested for inhibition of cholesterol uptake in hNPC1L1/MDCKII cells (Fig. 3).
The results are expressed as percentage of inhibition compared to untreated cells and represent mean ± SEM of three independent experiments. *p <0.05, **p <0.01, ***p <0.001 determined by one-way ANOVA followed by Dunnett’s test.
In vitro cholesterol uptake was determined as described by Dražić et al.[19] In brief, hNPC1L1/MDCKII cells were plated in 24-well plates at 5 × 10^5 cells/mL medium (500 μL medium/well) in DMEM supplemented with 5% LPDS 24 h before the treatment. Cells were washed once with PBS and medium containing micelles, [^3H]cholesterol (0.18 μCi/mL medium) ([1,2-3H(N)] cholesterol, 1 mCi/mL, ARC Inc., St. Louis, USA) and tested compounds in concentrations of 0–200 μM was added. After 1 h, the medium was removed, cells were washed three times with ice-cold 0.2% free fatty acid-free BSA and lysed. Radioactivity in the lysate (100 μL) was measured by liquid scintillation counting. Protein content in lysates was determined with the DC Protein Assay (Bio-Rad, Hercules, USA). The results were expressed as percentage of inhibition compared to untreated cells in CPM/mg protein. Activity of each compound was tested in duplicate in three independent experiments.

[7] = MDCKII cells stably expressing human NPC1L1 (hNPC1L1/MDCKII)
[8] = listed as ezetimibe 1, 20 mg/kg/day
[9] = hNPC1L1/MDCKII cells, 1 h, micelles with [3H]cholesterol

| SMILES | CC50 at 72 h [1] [µM] | CC50 at 72 h [2, 7] [µM] | IC50 ([3]; read-out: IC50, inhibition of cholesterol uptake) [µM] | maximum inhibition of cholesterol uptake [3] [%] | In vivo inhibition of cholesterol absorption, Duodenum ([4]; 20 mg/kg/day) | In vivo inhibition of cholesterol absorption, Ileum ([4]; 20 mg/kg/day) | In vivo inhibition of cholesterol absorption, Jejunum ([4]; 20 mg/kg/day) | In vivo inhibition of cholesterol absorption, Liver ([4]; 20 mg/kg/day) | In vivo inhibition of cholesterol absorption, Duodenum [4, 8] [%] | In vivo inhibition of cholesterol absorption, Ileum [4, 8] [%] | In vivo inhibition of cholesterol absorption, Jejunum [4, 8] [%] | In vivo inhibition of cholesterol absorption, Liver [4, 8] [%] | CC50 at 72 h [5] [µM] | IC50 [6, 9] [µM] | maximum inhibition of cholesterol uptake ([6]; hNPC1L1/MDCKII cells) | concentration at which maximum inhibition of cholesterol uptake was reached ([6]; hNPC1L1/MDCKII cells) [µM] | CC50 at 72 h [2] [µM] | IC50 [6] [µM] |
| --- | --- | --- | --- | --- | --- | --- | --- | --- | --- | --- | --- | --- | --- | --- | --- | --- | --- | --- |
| O=C1[C@H](CC[C@H](O)c2ccc(F)cc2)[C@@H](c2ccc(O)cc2)N1c1ccc(F)cc1 [Compound 1, Ezetimibe, reference compound] | 69.7 | 62.3 | 24 | 40 | 60 ± 6 % | 44 ± 11% | 52 ± 3 % | 53 ± 2 % | 60 | 44 | 52 | 53 | > 100 | – | – | – | – | – |
| O=C(Cc1ccccc1)N[C@H]1C(=O)N(c2ccc(F)cc2)[C@@H]1c1ccc(O)cc1 [Compound 5c, N-((2R,3R)-1-(4-Fluorophenyl)-2-(4-hydroxyphenyl)-4-oxoazetidin-3-yl)-2-phenylacetamide] | > 100 | > 100 | – | – | – | – | – | – | – | – | – | – | > 100 | 88 | ~ 40% | – | – | – |
| O=C(/C=C/c1ccccc1)N[C@H]1C(=O)N(c2ccc(F)cc2)[C@@H]1c1ccc(O)cc1 [Compound 5a, (E)-N-((2R,3R)-1-(4-Fluorophenyl)-2-(4-hydroxyphenyl)-4-oxoazetidin-3-yl)cinnamamide] | 63.3 | 65.1 | – | – | – | – | – | – | – | – | – | – | 66.5 | 20 | ~ 45% | 60 | – | – |
| O=C(Cc1ccc(F)cc1)N[C@H]1C(=O)N(c2ccc(F)cc2)[C@@H]1c1ccc(O)cc1 [Compound 5d, 2-(4-Fluorophenyl)-N-((2R,3R)-1-(4-fluorophenyl)-2-(4-hydroxyphenyl)-4-oxoazetidin-3-yl)acetamide] | > 100 | > 100 | – | – | 15% and 15 ± 12% | 24% and 24 ± 13% | 14% and 14 ± 20% | 39% and 39 ± 11 % | – | – | – | – | > 100 | 46 | ~ 40% | – | – | – |
| O=C(/C=C/c1ccc(F)cc1)N[C@H]1C(=O)N(c2ccc(F)cc2)[C@@H]1c1ccc(O)cc1 [Compound 5b, (E)-3-(4-Fluorophenyl)-N-((2R,3R)-1-(4-fluorophenyl)-2-(4-hydroxyphenyl)-4-oxoazetidin-3-yl)acrylamide] | 57.5 | – | – | – | 27% and 27 ± 10% | 37% and 37 ± 15% | 35% and 35 ± 8% | 49% and 49 ± 5 % | – | – | – | – | 64 | – | ~ 45% | 60 | 63.3 | 18 |
| O=C(N[C@H]1C(=O)N(c2ccc(F)cc2)[C@@H]1c1ccc(O)cc1)c1ccc(F)cc1 [Compound 5f, 4-Fluoro-N-((2R,3R)-1-(4-fluorophenyl)-2-(4-hydroxyphenyl)-4-oxoazetidin-3-yl)benzamide] | 71.9 | 64.7 | – | – | 42% and 42 ± 2% | 28% and 28 ± 7% | 32% and 32 ± 6% | 37% and 37 ± 8 % | – | – | – | – | 78.6 | 54 | – | – | – | – |
| O=C(N[C@H]1C(=O)N(c2ccc(F)cc2)[C@@H]1c1ccc(O)cc1)c1ccccc1 [Compound 5e, N-((2R,3R)-1-(4-Fluorophenyl)-2-(4-hydroxyphenyl)-4-oxoazetidin-3-yl)benzamide] | 67.6 | 68.3 | – | – | – | – | – | – | – | – | – | – | 91.2 | 70 | – | – | – | – |

Source: paper PMC4414353, “Synthesis and evaluation of novel amide amino-β-lactam derivatives as cholesterol absorption inhibitors” (Bioorganic & medicinal chemistry, 2015)
